Values of other authors in patent publication US6943193B1, “Method for treating sexual dysfunction” (priority 2003, dated 2005).

Tested on: erectile dysfunction

CCCc1nn(C)c2c(=O)[nH]c(-c3cc(S(=O)(=O)N4CCN(C)CC4)ccc3OCC)nc12 [sildenafil]
efficacy (clinical practice): ~50% | success rates (initial reports): ≤ 85%
